Test results as given in US10111907B2, “Methods of treating ischemia” (FATE THERAPEUTICS, INC., priority 2011, dated 2018).

Test system: CD34+ cells
Assay: SDF-1 transwell migration assay
Assay type: cell-based
Details: CD34+ cells treated 4 hours at 37° C. at 10 μM, washed; 50 ng/mL SDF1 in lower chamber, 2.5 hours; compared to DMSO control
Procedure: Transwell migration assays were performed using 96-well chemotaxis chambers, […] pore size polycarbonate membrane (Corning Inc., Corning, N.Y.) in accordance with manufacturer's instructions. Briefly, CD34^+ cells were then treated for 4 hours at 37° C. with 16,16-dimethyl PGE2 (dmPGE2), dmPGE2 and glucocorticoid, or DMSO control at a concentration of 10 μM in StemSpan® media (StemCell Technology, Vancouver, Canada). The cells were then washed by centrifugation (300 g for 10 minutes) and resuspended in transwell assay buffer (Phenol Red Free RPMI media (Mediatech), 0.5% lipid free BSA (Sigma-Aldrich) at a concentration of 40,000-60,000 cells/75 μl.
To test the duration of the treatment effects, one portion of treated cells was washed by centrifugation (300 g for 10 minutes) and resuspended in StemSpan® media for 4 hours at 37° C. without dmPGE2, glucocorticoids, or DMSO and then washed again by centrifugation (300 g for 10 minutes) and resuspended in transwell assay buffer (Phenol Red Free RPMI media (Mediatech), 0.5% lipid free BSA (Sigma-Aldrich) at a concentration of 40,000-60,000 cells/75 μl.
Seventy-five μl of cell suspension was added to the upper chamber of the plate, while 235 μl of transwell assay media containing 0 or 50 ng/ml SDF 1α (R&D system, Minneapolis, Minn.) was added to the bottom well. […]

CCCCC(C)(C)[C@H](O)/C=C/[C@H]1[C@H](O)CC(=O)[C@@H]1C/C=C\CCCC(=O)O [dmPGE2, 16,16-dimethyl PGE2]
SDF1-driven cell migration (% of cells added): increased SDF1-driven cell migration compared to the DMSO control
